The source of these data is patent US11480877B2, “Resist composition, method for forming resist pattern, and polyphenol compound used therein” (Mitsubishi Gas Chemical Company, Inc., priority 2015, dated 2022).

The series in a line: Safe solvent solubility test of compound. The conditions noted are these: for Solubility in CHN (amount of dissolution) / Solubility in PGME (amount of dissolution) / Solubility in PGME A (amount of dissolution): 23° C., ultrasonic waves 30 minutes, visual observation; for Solubility in PGME A (amount of dissolution) / Solubility in safe solvents (in words): PGMEA; for Solubility in safe solvents (in words): safe solvents PGME; for Solubility in CHN (amount of dissolution) / Solubility in safe solvents (in words): CHN. It is filed as physicochemical. The procedure:
The solubilities of the compound in PGME, PGMEA, and CHN were evaluated according to the following criteria utilizing the amount of dissolution in each solvent. The amount of dissolution was measured at 23° C. by precisely weighing the compound into a test tube, adding a subject solvent so as to attain a predetermined concentration, applying ultrasonic waves for 30 minutes in an ultrasonic cleaner, and visually observing the subsequent state of the fluid.
A: 5.0% by mass≤Amount of dissolution
B: 2.0% by mass≤Amount of dissolution<5.0% by mass
C: Amount of dissolution<2.0% by mass • (2) Storage Stability and Thin Film Formability of Resist Composition

For `Oc1ccc2c3c(ccc2c1)Oc1ccc2cc(O)ccc2c1C3c1ccc(-c2ccccc2)cc1` [Production Example 1, reference compound], the “Solubility in CHN (amount of dissolution)” value (“Solubility in CHN” below) is “A (5.0% by mass ≤ Amount of dissolution)”, the “Solubility in PGME (amount of dissolution)” value is reported as “A (5.0% by mass ≤ Amount of dissolution)” and the “Solubility in PGME A (amount of dissolution)” value is listed as “A (5.0% by mass ≤ Amount of dissolution)”.

For `Oc1ccc2c3c(ccc2c1)Oc1ccc2cc(O)ccc2c1C3c1cccc(I)c1` [Synthesis Example 1], the “Solubility in CHN” value is “A (5.0% by mass ≤ Amount of dissolution)”, the “Solubility in PGME (amount of dissolution)” value is “A (5.0% by mass ≤ Amount of dissolution)”, the “Solubility in PGME A (amount of dissolution)” value is reported as “A (5.0% by mass ≤ Amount of dissolution)” and the “Solubility in safe solvents (in words)” value is listed as “high solubility”.

Take `Oc1ccc2c3c(ccc2c1)Oc1ccc2cc(O)ccc2c1C3c1ccc(I)cc1` [Synthesis Example 2]: the “Solubility in CHN” value is “A (5.0% by mass ≤ Amount of dissolution)”, the “Solubility in PGME (amount of dissolution)” value is given as “A (5.0% by mass ≤ Amount of dissolution)”, the “Solubility in PGME A (amount of dissolution)” value was “A (5.0% by mass ≤ Amount of dissolution)” and the “Solubility in safe solvents (in words)” value is “high solubility”.

Take `COc1cc(C2c3c(ccc4cc(O)ccc34)Oc3ccc4cc(O)ccc4c32)cc(I)c1O` [Synthesis Example 3]: the “Solubility in CHN” value is given as “A (5.0% by mass ≤ Amount of dissolution)”, the “Solubility in PGME (amount of dissolution)” value is reported as “A (5.0% by mass ≤ Amount of dissolution)”, the “Solubility in PGME A (amount of dissolution)” value is listed as “A (5.0% by mass ≤ Amount of dissolution)” and the “Solubility in safe solvents (in words)” value is “high solubility”.

Regarding `Oc1ccc2ccc3c(c2c1)C(c1cccc(I)c1)c1c(ccc2ccc(O)cc12)O3` [Synthesis Example 4], the “Solubility in CHN” value is on record as “B (2.0% by mass ≤ Amount of dissolution <5.0% by mass)”, the “Solubility in PGME (amount of dissolution)” value was “A (5.0% by mass ≤ Amount of dissolution)”, the “Solubility in PGME A (amount of dissolution)” value was “A (5.0% by mass ≤ Amount of dissolution)” and the “Solubility in safe solvents (in words)” value was “high solubility”.

As for `Oc1ccc2ccc3c(c2c1)C(c1ccc(I)cc1)c1c(ccc2ccc(O)cc12)O3` [Synthesis Example 5], the “Solubility in CHN” value is listed as “A (5.0% by mass ≤ Amount of dissolution)”, the “Solubility in PGME (amount of dissolution)” value is “A (5.0% by mass ≤ Amount of dissolution)”, the “Solubility in PGME A (amount of dissolution)” value is “C (Amount of dissolution <2.0% by mass)” and the “Solubility in safe solvents (in words)” value was “high solubility”.

`COc1cc(C2c3c(ccc4ccc(O)cc34)Oc3ccc4ccc(O)cc4c32)cc(I)c1O` [Synthesis Example 6]: the “Solubility in CHN” value is reported as “A (5.0% by mass ≤ Amount of dissolution)”, the “Solubility in PGME (amount of dissolution)” value is on record as “A (5.0% by mass ≤ Amount of dissolution)”, the “Solubility in PGME A (amount of dissolution)” value is recorded as “A (5.0% by mass ≤ Amount of dissolution)” and the “Solubility in safe solvents (in words)” value is “high solubility”.
